Laboratory results from US11566041B2, “Nucleotide prodrug compounds” (Ligand Pharmaceuticals Incorporated, priority 2020, dated 2023).

Assays:
[1] = Tissue distribution following oral administration: blood metabolite nucleoside and liver nucleoside triphosphate levels; design: species or system rats; details: rat, in vivo, 5 mg/kg; for Blood Nuc level at 1 hour / Liver NTP level at 1 hour / Blood Nuc level at 5 hours / Liver NTP level at 5 hours: po
Experimental: IV Remdesivir (2 mg/kg), oral Remdesevir (5 mg/kg) and oral test compound (5 mg/kg) were administered to rats. Oral administration was to fasted rats by oral gavage. Plasma concentrations of the metabolite nucleoside in circulation were determined by HPLC-UV, and the liver concentrations of the active triphosphate were measured by LC-MS using standard chromatography methods.
FIG. 4 is a graph showing the ratio of (concentration of corresponding nucleoside in the liver)/(concentration of corresponding nucleoside in the blood) after 1 and 5 hours from the second study.
Table 1 contains the blood and liver levels after 1 and 5 hours for a number of test compounds compared to oral Remdesivir.

[2] = Tissue distribution following inhalation administration: blood and lung metabolite nucleoside and lung triphosphate levels; type: in vivo, rats
Experimental: Remdesivir or the indicated test compound was administered at 2 mg/kg to rats by an inhalation route. The lung concentrations of the metabolite nucleoside and its triphosphate were measured by LC-MS using standard chromatography methods.

Row | SMILES | Blood Nuc level at 1 hour [1] | Liver NTP level at 1 hour [1] [x] | Blood Nuc level at 5 hours [1] [x] | Liver NTP level at 5 hours [1] [x] | Liver exposure of nucleoside triphosphate relative to IV or oral Remdesivir [1] | Lung levels of the metabolite nucleoside, exposure relative to Remdesivir ([2]; rat, in vivo, 2 mg/kg) | Nucleoside triphosphate levels in the lung ([2]; rat, in vivo, 2 mg/kg) | Nucleoside triphosphate levels in the lung ([2]; rats, 2 mg/kg inhalation route, FIG. 7)
1 | CCOC(=O)c1ccccc1COP1(=O)OC[C@H]2O[C@@](C#N)(c3ccc4c(N)ncnn34)[C@H](O)[C@@H]2O1 (stereo partly drawn) [Compound 101, Ethyl 2-((((4aR,6R,7R,7aS)-6-(4-aminopyrrolo[2,1-f][1,2,4]triazin-7-yl)-6-cyano-7-hydroxy-2-oxidotetrahydro-4H-furo[3,2-d][1,3,2]dioxaphosphinin-2-yl)oxy)methyl)benzoate] | <1x | ≥2 | <1 | ≥2 | – | – | – | –
2 | CCOC(=O)c1ccccc1COP1(=O)OC[C@H]2O[C@@](C#N)(c3ccc4c(N)ncnn34)[C@H](OC(C)=O)[C@@H]2O1 (stereo partly drawn) [Compound 105, Ethyl 2-((((4aR,6R,7R,7aR)-7-acetoxy-6-(4-aminopyrrolo[2,1-f][1,2,4]triazin-7-yl)-6-cyano-2-oxidotetrahydro-4H-furo[3,2-d][1,3,2]dioxaphosphinin-2-yl)oxy)methyl)benzoate] | ≥2x* | ≥2 | ≥2 | ≥2 | significantly greater liver exposure than either IV or oral Remdesivir | more than 4 times | significant lung exposure of the triphosphate | –
3 | CCOC(=O)c1ccccc1COP1(=O)OC[C@H]2O[C@@](C#N)(c3ccc4c(N)ncnn34)[C@H](OC(=O)CC)[C@@H]2O1 (stereo partly drawn) [Compound 106, Ethyl 2-((((4aR,6R,7R,7aR)-6-(4-aminopyrrolo[2,1-f][1,2,4]triazin-7-yl)-6-cyano-2-oxido-7-(propionyloxy)tetrahydro-4H-furo[3,2-d][1,3,2]dioxaphosphinin-2-yl)oxy)methyl)benzoate] | ≥2x | ≥2 | ≥2 | ≥2 | – | – | – | –
4 | CCC(CC)COC(=O)[C@H](C)N[P@](=O)(OC[C@H]1O[C@@](C#N)(c2ccc3c(N)ncnn23)[C@H](O)[C@@H]1O)Oc1ccccc1 [Remdesivir, reference compound] | – | – | – | – | – | – | – | below the level of quantitation
